Reference: PubChem BioAssay (NCI)
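In this assay, cells in 96-well plates receive the compound at five concentrations for 48 hours. Endpoints are linearly interpolated between the surrounding concentrations. Definition used: TGI = concentration required for complete inhibition of growth.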

Legend:
Test in all cases: NCI anticancer screen, dose series, 48 h
[1] = system: 786-0 renal
[2] = system: A498 renal
[3] = system: A549 NSCLC
[4] = system: ACHN renal
[5] = system: BT-549 breast
[6] = system: CAKI-1 renal
[7] = system: CCRF-CEM leukemia
[8] = system: COLO 205 colon
[9] = system: DU-145 prostate
[10] = system: EKVX NSCLC
[11] = system: HCC-2998 colon
[12] = system: HCT-116 colon
[13] = system: HCT-15 colon
[14] = system: HL-60(TB) leukemia
[15] = system: HOP-62 NSCLC
[16] = system: HOP-92 NSCLC
[17] = system: HS 578T breast
[18] = system: HT29 colon
[19] = system: IGROV1 ovarian
[20] = system: K-562 leukemia
[21] = system: KM12 colon
[22] = system: LOX IMVI melanoma
[23] = system: M14 melanoma
[24] = system: MALME-3M melanoma
[25] = system: MCF7 breast
[26] = system: MDA-MB-231 breast
[27] = system: MDA-MB-435
[28] = system: MDA-N
[29] = system: MOLT-4 leukemia
[30] = system: NCI-H226 lung
[31] = system: NCI-H23 lung
[32] = system: NCI-H460 lung
[33] = system: NCI-H522 lung
[34] = system: NCI/ADR-RES ovarian
[35] = system: OVCAR-3 ovarian
[36] = system: OVCAR-4 ovarian
[37] = system: OVCAR-5 ovarian
[38] = system: OVCAR-8 ovarian
[39] = system: PC-3 prostate
[40] = system: RPMI-8226 leukemia
[41] = system: RXF 393 renal
[42] = system: SF-268 CNS
[43] = system: SF-295 CNS
[44] = system: SF-539 CNS
[45] = system: SK-MEL-2 melanoma
[46] = system: SK-MEL-28 melanoma
[47] = system: SK-MEL-5 melanoma
[48] = system: SK-OV-3 ovarian
[49] = system: SN12C renal
[50] = system: SNB-19 CNS
[51] = system: SNB-75 CNS
[52] = system: SR leukemia
[53] = system: SW-620 colon
[54] = system: T-47D breast
[55] = system: TK-10 renal
[56] = system: U251 CNS
[57] = system: UACC-257 melanoma
[58] = system: UACC-62 melanoma
[59] = system: UO-31 renal
[60] = system: DLD-1 colon
[61] = system: DMS 114 small cell lung
[62] = system: DMS 273 small cell lung
[63] = system: KM20L2 colon
[64] = system: LXFL 529 NSCLC
[65] = system: M19-MEL melanoma
[66] = system: SNB-78 CNS
[67] = system: XF 498 CNS

CN(CCCCN1CCCC1)CCCCN(C)C(=O)Cc1ccc(Cl)c(Cl)c1
TGI [1]: 25.7 µM | TGI [2]: 32.4 µM | TGI [3]: 31.2 µM | TGI [4]: 57.1 µM | TGI [5]: 36.7 µM | TGI [6]: 39.2 µM | TGI [7]: 20.7 µM | TGI [8]: 27.4 µM | TGI [9]: 72 µM | TGI [10]: 37 µM | TGI [11]: 18.5 µM | TGI [12]: 29.3 µM | TGI [13]: 50 µM | TGI [14]: 36.1 µM | TGI [15]: 34.8 µM | TGI [16]: 17.5 µM | TGI [17]: 54.5 µM | TGI [18]: 15.4 µM | TGI [19]: 37 µM | TGI [20]: 10.5 µM | TGI [21]: 26.1 µM | TGI [22]: 25.2 µM | TGI [23]: 35.7 µM | TGI [24]: 34.4 µM | TGI [25]: 28.3 µM | TGI [26]: 23.5 µM | TGI [27]: 5.3 µM | TGI [28]: 12.2 µM | TGI [29]: 22.1 µM | TGI [30]: 41.8 µM | TGI [31]: 37.3 µM | TGI [32]: 30.6 µM | TGI [33]: 27.7 µM | TGI [34]: > 100 µM | TGI [35]: 44.5 µM | TGI [36]: 33.9 µM | TGI [37]: 41.2 µM | TGI [38]: 64.9 µM | TGI [39]: 36.4 µM | TGI [40]: 23.9 µM | TGI [41]: 25.9 µM | TGI [42]: 39.8 µM | TGI [43]: 38 µM | TGI [44]: 23.3 µM | TGI [45]: 19.7 µM | TGI [46]: 3.88 µM | TGI [47]: 19.9 µM | TGI [48]: 47.2 µM | TGI [49]: 36.8 µM | TGI [50]: 36.8 µM | TGI [51]: 32.8 µM | TGI [52]: 14.3 µM | TGI [53]: 38.4 µM | TGI [54]: 40.7 µM | TGI [55]: 32.6 µM | TGI [56]: 27.8 µM | TGI [57]: 6.22 µM | TGI [58]: 12.3 µM | TGI [59]: 3.31 µM

Cc1ccc(-c2cn3c(nc4ccccc43)c(-c3ccccc3)n2)cc1
TGI [1]: 49.2 µM | TGI [2]: > 86.5 µM | TGI [3]: > 100 µM | TGI [4]: > 100 µM | TGI [5]: > 77 µM | TGI [6]: > 100 µM | TGI [7]: > 100 µM | TGI [8]: > 100 µM | TGI [9]: > 100 µM | TGI [10]: > 100 µM | TGI [11]: > 100 µM | TGI [12]: > 100 µM | TGI [13]: > 100 µM | TGI [14]: > 100 µM | TGI [15]: 43.7 µM | TGI [16]: 56.4 µM | TGI [17]: > 77.2 µM | TGI [18]: > 100 µM | TGI [19]: > 100 µM | TGI [20]: > 100 µM | TGI [21]: > 100 µM | TGI [22]: > 100 µM | TGI [23]: > 100 µM | TGI [24]: > 100 µM | TGI [25]: > 100 µM | TGI [26]: > 100 µM | TGI [27]: > 100 µM | TGI [28]: > 100 µM | TGI [29]: > 100 µM | TGI [30]: > 100 µM | TGI [31]: 80.8 µM | TGI [32]: > 100 µM | TGI [33]: > 100 µM | TGI [34]: > 100 µM | TGI [35]: > 100 µM | TGI [36]: > 100 µM | TGI [37]: > 100 µM | TGI [38]: > 100 µM | TGI [39]: > 100 µM | TGI [40]: > 100 µM | TGI [41]: > 61.3 µM | TGI [42]: > 96.2 µM | TGI [43]: > 67.1 µM | TGI [44]: > 100 µM | TGI [45]: 58.3 µM | TGI [46]: > 100 µM | TGI [47]: > 100 µM | TGI [48]: 47.9 µM | TGI [49]: > 100 µM | TGI [50]: 48.7 µM | TGI [51]: > 47.7 µM | TGI [52]: > 100 µM | TGI [53]: > 100 µM | TGI [54]: > 91.7 µM | TGI [55]: > 76.5 µM | TGI [56]: > 66.6 µM | TGI [57]: > 100 µM | TGI [58]: > 72.5 µM | TGI [59]: > 73.9 µM

c1ccc(CCCC2Sc3cccc4cccc(c34)S2)cc1
TGI [1]: > 100 µM | TGI [3]: > 100 µM | TGI [4]: > 100 µM | TGI [6]: > 100 µM | TGI [7]: > 100 µM | TGI [8]: > 100 µM | TGI [60]: > 100 µM | TGI [61]: > 100 µM | TGI [62]: > 100 µM | TGI [10]: > 100 µM | TGI [11]: > 100 µM | TGI [12]: > 100 µM | TGI [13]: > 100 µM | TGI [14]: > 100 µM | TGI [15]: > 100 µM | TGI [16]: > 100 µM | TGI [18]: > 100 µM | TGI [19]: > 100 µM | TGI [20]: > 100 µM | TGI [21]: > 100 µM | TGI [63]: > 100 µM | TGI [22]: > 100 µM | TGI [64]: > 100 µM | TGI [23]: > 100 µM | TGI [65]: > 100 µM | TGI [24]: > 100 µM | TGI [30]: > 100 µM | TGI [31]: > 100 µM | TGI [32]: > 100 µM | TGI [33]: > 100 µM | TGI [35]: > 100 µM | TGI [36]: > 100 µM | TGI [37]: > 100 µM | TGI [38]: > 100 µM | TGI [40]: > 100 µM | TGI [41]: > 100 µM | TGI [42]: > 100 µM | TGI [43]: > 100 µM | TGI [44]: > 100 µM | TGI [45]: > 100 µM | TGI [46]: > 100 µM | TGI [47]: > 100 µM | TGI [48]: > 100 µM | TGI [49]: > 100 µM | TGI [50]: > 100 µM | TGI [51]: > 100 µM | TGI [66]: > 100 µM | TGI [53]: > 100 µM | TGI [55]: > 100 µM | TGI [56]: > 100 µM | TGI [58]: > 100 µM | TGI [59]: > 100 µM | TGI [67]: > 100 µM
